# Test results from US20160213729A1, “FILIPENDULA VULGARIS EXTRACT AND USES THEREOF” (ABOCA S.P.A. SOCIETA' AGRICOLA, priority 2013, published 2016).
# How the values were obtained:
# Assay type in all cases: cell-based, human
# [1] = system: untransformed normal mesothelial cells (HMC); assay: Comet assay, HMC; conditions: single agent
# Description: (§6) After the treatment, the cells were trypsinized and immersed in 1% low-melting agarose (Sigma) in PBS and spread onto microscope slides coated beforehand with 1% agarose (Bio-Rad). The cells were lysed in the lysis solution (2.5 M NaCl, 100 mM EDTA, 10 mM Tris base, 8 g/l NaOH, 1% Triton X-100, 10% DMSO) for 1 hour at room temperature and then run into the running solution (300 mM NaOH, 1 mM EDTA, pH 13.0) for 30 minutes, at 25 V and 250 mA. DNA was balanced with 0.4 M Tris, pH 8.0, and the slides dried with methanol. Propidium iodide-DNA (Sigma) and the figures images were taken by using an Axiovert 200M microscope with 40× magnification and an Axiovision (Zeiss) image acquisition software. At least 300 cells per each slide were recorded.
# MSTO211H cells = assay: Comet assay, MSTO211H; conditions: single agent
# Description: as §6
# [2] = system: mesothelioma cell lines MPM MSTO211H; assay: Cell vitality (ATPlite) in co-treatment with pemetrexed, MSTO211H
# Description: (§1) Cell lines MSTO211H and NCl-H2052 were used to evaluate the effects of the association of extract of Filipendula vulgaris±anti-tumour drug.
# (§2) The assay shown in FIG. 10 was performed using ATPlite™ assay (Perkin Elmer) in accordance with the producer's instructions.
# (§3) A solution of water for injectable solutions and ethanol at a concentration of 1:1 was used in the same volumes used for the treatments.
# (§4) pemetrexed (Alimta, Lilly) diluted in accordance with the producer's instructions.
# (§5) The concentrations of the assayed compound are plotted on the abscissa, whereas the cell vitality expressed in percentage is plotted on the ordinate.
# [3] = system: mesothelioma cell lines MPM NCl-H2052; assay: Cell vitality (ATPlite) in co-treatment with pemetrexed, NCl-H2052
# Description: as §1, §2, §3, §4, §5
# mesothelial cells (HMC) = assay: Cell vitality (ATPlite) in co-treatment with pemetrexed, HMC; conditions: pemetrexed alone
# Description: as §2, §3, §4, §5
Compound,DNA damage / fragmentation [1],DNA damage / fragmentation (MSTO211H cells),concentration of pemetrexed sufficient to lower the cell vitality in double treatment ([2]; double treatment with extract 6 μg/ml),"cell vitality, single agent ([2]; pemetrexed alone)","concentration of pemetrexed sufficient to lower the cell vitality in double treatment ([3]; NCl-H2052, double treatment with extract 6 μg/ml)","cell vitality, single agent ([3]; NCl-H2052, pemetrexed alone)","toxicity for non-tumour cells, single agent (mesothelial cells (HMC))"
"N.N.[Cl][Pt][Cl] [CDDP, cis-diamminedichloroplatinum]",induces DNA fragmentation,induces DNA fragmentation,,,,,
"Nc1nc2[nH]cc(CCc3ccc(C(=O)N[C@@H](CCC(=O)O)C(=O)O)cc3)c2c(=O)[nH]1 [PMTX, pemetrexed]",,,10 µM,cytotoxic for the MPM cells,10 µM,cytotoxic for the MPM cells,highly toxic for the non-tumour cells
